Measurements taken from US9708336B2, “Metallo-beta-lactamase inhibitors” (priority 2014, dated 2017).
Where two headings read alike, the source gives them in different places.

Assays:
VIM-1 = VIM-1 (Pseudomonas aeruginosa (strain ATCC 15692 / DSM 22644 / CIP 104116 / JCM 14847 / LMG 12228 / 1C / PRS 101 / PAO1), UniProt A0A0F7KYQ8); experiment: Enzyme activity: determination of IC50, fluorescence assay with CCF2-FA substrate (VIM-1); format: biochemical
IMP-1 = IMP-1 (Serratia marcescens, UniProt P52699); experiment: biochemical; format: biochemical; details: read-out: IMP-1 IC50
[1] = test system: Serratia marcescens expressing IMP-1 (CL5741); experiment: Antibiotic potentiation activity: synergistic concentration (MITC95) with imipenem, OD600 growth; format: cell-based; details: for Serratia marcescens expressing IMP-1 (CL5741) MITC95: concentration giving 95% inhibition of bacterial growth
Procedure, shortened: (§1)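 CLB30005 was precultured on Mueller Hinton agar with 8 ug/ml imipenem, the other strains on trypticase soy agar with 5% sheep blood, overnight at 35 °C. Saline suspensions diluted 1:100 in 1.1× CAMHB received compound and 4 μg/ml imipenem, then 22–24 h at 35 °C before absorbance reading.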

[2] = test system: Klebsiella pneumoniae expressing VIM-1 (IHMA599644); experiment: as above; format: cell-based; details: for Klebsiella pneumoniae expressing VIM-1 (IHMA 599644) MITC95: concentration giving 95% inhibition of bacterial growth
Procedure, shortened: as §1

[3] = test system: Escherichia coli expressing NDM-1 (CLB30016); experiment: as above; format: cell-based; details: for Escherichia coli expressing NDM-1 (CLB 30016) MITC95: concentration giving 95% inhibition of bacterial growth
Procedure, shortened: as §1

NDM-1 = NDM-1 (Klebsiella pneumoniae, UniProt C7C422); experiment: biochemical; format: biochemical; details: read-out: NDM-1 IC50
[4] = fluorescence assay with CCF2-FA substrate, read-out: VIM-1 IC50
[5] = fluorescence assay with CCF2-FA substrate
[6] = CL5741 (IMP-1), 95% inhibition of bacterial growth
[7] = IHMA599644 (VIM-1), 95% inhibition of bacterial growth
[8] = CLB30016 (NDM-1), 95% inhibition of bacterial growth
[9] = VIM-1 enzyme, CCF2-FA fluorescence assay, read-out: VIM-1 IC50
[10] = IMP-1 enzyme, CCF2-FA fluorescence assay
[11] = Serratia marcescens expressing IMP-1 (CL5741), 95% growth inhibition
[12] = Klebsiella pneumoniae expressing VIM-1 (IHMA599644), 95% growth inhibition
[13] = Escherichia coli expressing NDM-1 (CLB30016), 95% growth inhibition
[14] = NDM-1 enzyme, CCF2-FA fluorescence assay
[15] = VIM-1 enzyme, CCF2-FA substrate, read-out: VIM-1 IC50
[16] = IMP-1 enzyme, CCF2-FA substrate
[17] = Serratia marcescens CL5741 (IMP-1), 95% growth inhibition
[18] = Klebsiella pneumoniae IHMA599644 (VIM-1), 95% growth inhibition
[19] = (CLB30016, NDM-1), 95% growth inhibition
[20] = NDM-1 enzyme, CCF2-FA substrate

NDM-1, sequence (C7C422 whole entry, looked up, species assumed): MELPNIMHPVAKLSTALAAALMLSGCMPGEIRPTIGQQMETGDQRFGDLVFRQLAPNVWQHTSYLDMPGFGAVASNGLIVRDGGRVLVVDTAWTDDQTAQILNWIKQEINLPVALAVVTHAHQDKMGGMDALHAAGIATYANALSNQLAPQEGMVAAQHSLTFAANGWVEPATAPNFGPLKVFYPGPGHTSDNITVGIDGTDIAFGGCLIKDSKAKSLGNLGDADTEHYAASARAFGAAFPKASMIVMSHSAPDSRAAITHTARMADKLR
IMP-1, sequence (P52699 whole entry, looked up): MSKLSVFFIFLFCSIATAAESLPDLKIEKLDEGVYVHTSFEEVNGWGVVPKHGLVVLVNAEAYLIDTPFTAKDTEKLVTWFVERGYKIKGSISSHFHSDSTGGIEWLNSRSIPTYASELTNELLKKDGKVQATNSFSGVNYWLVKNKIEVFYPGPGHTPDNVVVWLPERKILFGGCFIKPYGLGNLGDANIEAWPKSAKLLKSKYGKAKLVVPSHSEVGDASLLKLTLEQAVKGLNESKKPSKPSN

Row | Structure (SMILES) | IC50 (VIM-1; [4]) [nM] | IC50 (IMP-1; [5]) [nM] | IC50 (NDM-1; [5]) [nM] | IC50 (VIM-1; [9]) [nM] | IC50 (IMP-1; [10]) [nM] | Serratia marcescens MITC95 [1, 11] [µM] | Klebsiella pneumoniae MITC95 [2, 12] [µM] | Escherichia coli MITC95 [3, 13] [µM] | IC50 (NDM-1; [14]) [nM] | also measured
1 | CC(C)(C)C(=O)NCC1CCN(c2ccc(C(F)(F)F)c(S(N)(=O)=O)c2-c2nnn[nH]2)CC1 [Example 760, 2,2-dimethyl-N-({1-[3-sulfamoyl-2-(1H-tetrazol-5-yl)-4-(trifluoromethyl)phenyl]piperidin-4-yl}methyl) propanamide] | 1.51 | 2.08 | 5.64 |  |  |  |  |  |  | Serratia marcescens MITC95 [1, 6]: 25 µM; Klebsiella pneumoniae MITC95 [2, 7]: 100 µM; Escherichia coli MITC95 [3, 8]: 100 µM
2 | NS(=O)(=O)c1c(CC2CCNC2)ccc(-c2ccc(C3CCNCC3)cc2)c1-c1nn[nH]n1 (stereo not drawn) [Example 468, 4′-(piperidin-4-yl)-4-(pyrrolidin-3-ylmethyl)-2-(2H-tetrazol-5-yl)-[1,1′-biphenyl]-3-sulfonamide] |  |  |  | 3.81 | 13.5 | 1.563 | 1.563 | 0.7813 | 9.95 | 
3 | N=C(N)N1CCC([C@H]2CC[C@H](c3ccc(C(F)(F)F)c(S(N)(=O)=O)c3-c3nnn[nH]3)CC2)CC1 [Example 825, 4-[4-[3-sulfamoyl-2-(1H-tetrazol-5-yl)-4-(trifluoromethyl)phenyl]cyclohexyl] piperidine-1-carboxamidine] | 0.0805 | 0.499 | 0.157 |  |  |  |  |  |  | Serratia marcescens MITC95 [1, 6]: 1.563 µM; Klebsiella pneumoniae MITC95 [2, 7]: 3.125 µM; Escherichia coli MITC95 [3, 8]: 0.7813 µM
4 | NCCNC1CCN(c2ccc(C(F)(F)F)c(S(N)(=O)=O)c2-c2nnn[nH]2)CC1 [Example 829, 3-[4-(2-aminoethylamino)-1-piperidyl]-2-(1H-tetrazol-5-yl)-6-(trifluoromethyl)benzenesulfonamide] | 1.08 | 93.3 | 59.8 |  |  |  |  |  |  | Serratia marcescens MITC95 [1, 6]: 0.9766 µM; Klebsiella pneumoniae MITC95 [2, 7]: 0.7813 µM; Escherichia coli MITC95 [3, 8]: 0.7813 µM
5 | CN(CCC(=O)O)Cc1ccc(-c2cccc(S(N)(=O)=O)c2-c2nnn[nH]2)cc1 [Example 361, N-methyl-N-{[3′-sulfamoyl-2′-(1H-tetrazol-5-yl)biphenyl-4-yl]methyl}-beta-alanine] |  |  |  | 271 | 139 | 3.125 | 25 | 2.344 | 12.9 | 
6 | N=C(N)N1CC(c2ccc(-c3ccc(C(F)(F)F)c(S(N)(=O)=O)c3-c3nn[nH]n3)cc2)C1 [Example 434, 3-(3′-sulfamoyl-2′-(2H-tetrazol-5-yl)-4′-(trifluoromethyl)-[1,1′-biphenyl]-4-yl)azetidine-1-carboximidamide] |  |  |  | 0.175 | 1.85 | 0.09375 | 0.7656 | 0.543 | 1.78 | 
7 | NCC1COc2ccc(-c3ccc(C(F)(F)F)c(S(N)(=O)=O)c3-c3nnn[nH]3)cc21 (stereo not drawn) [Example 733, 3-[3-(aminomethyl)-2,3-dihydro-1-benzofuran-5-yl]-2-(1H-tetrazol-5-yl)-6-(trifluoromethyl)benzenesulfon-amide] |  |  |  |  |  |  |  |  |  | IC50 (VIM-1; [15]): 1.47 nM; IC50 (IMP-1; [16]): 34.3 nM; Serratia marcescens MITC95 [1, 17]: 25 µM; Klebsiella pneumoniae MITC95 [2, 18]: 6.25 µM; Escherichia coli MITC95 [3, 19]: 12.5 µM; IC50 (NDM-1; [20]): 33.5 nM
8 | NS(=O)(=O)c1cccc(-c2ccc(CNCCc3cc[nH]n3)cc2)c1-c1nnn[nH]1 [Example 389, 4′-({[2-(1H-pyrazol-3-yl)ethyl]amino}methyl)-2-(1H-tetrazol-5-yl)biphenyl-3-sulfonamide] |  |  |  | 146 | 64 | 2.344 | 75 | 1.563 | 3.33 | 
9 | Nc1nc2cc(C(F)(F)F)cc(-c3ccc(C(F)(F)F)c(S(N)(=O)=O)c3-c3nnn[nH]3)c2[nH]1 [Example 567] |  |  |  |  |  |  |  |  |  | IC50 (VIM-1; [15]): 0.225 nM; IC50 (IMP-1; [16]): 3.77 nM; Serratia marcescens MITC95 [1, 17]: 6.25 µM; Klebsiella pneumoniae MITC95 [2, 18]: 6.25 µM; Escherichia coli MITC95 [3, 19]: 3.125 µM; IC50 (NDM-1; [20]): 0.299 nM
10 | NS(=O)(=O)c1nccc(N2CCC(N3CCNCC3)CC2)c1-c1nnn[nH]1 [Example 227, 4-(4-piperazin-1-ylpiperidin-1-yl)-3-(1H-tetrazol-5-yl)pyridine-2-sulfonamide] | 261 | 7070 | 888 |  |  |  |  |  |  | Serratia marcescens expressing IMP-1 (CL5741) MITC95 [1]: 75 µM; Klebsiella pneumoniae expressing VIM-1 (IHMA 599644) MITC95 [2]: 6.25 µM; Escherichia coli expressing NDM-1 (CLB 30016) MITC95 [3]: 3.125 µM
11 | NS(=O)(=O)c1c(Cc2ccccc2)ccc(-c2ccc(C3CCNCC3)cc2)c1-c1nnn[nH]1 [Example 261] |  |  |  | 10.2 | 1.72 | 1.563 | 100 | 6.25 | 6.59 | 
12 | NS(=O)(=O)c1nccc(N2CCC(n3ccnc3)CC2)c1-c1nnn[nH]1 [Example 228, 4-[4-(1H-imidazol-1-yl)piperidin-1-yl]-3-(1H-tetrazol-5-yl)pyridine-2-sulfonamide] | 343 | 3210 | 372 |  |  |  |  |  |  | Serratia marcescens expressing IMP-1 (CL5741) MITC95 [1]: 37.5 µM; Klebsiella pneumoniae expressing VIM-1 (IHMA 599644) MITC95 [2]: 37.5 µM; Escherichia coli expressing NDM-1 (CLB 30016) MITC95 [3]: 1.563 µM
13 | Nc1ncc(-c2ccc(C(F)(F)F)c(S(N)(=O)=O)c2-c2nnn[nH]2)cn1 [Example 475, 3-(2-aminopyrimidin-5-yl)-2-(1H-tetrazol-5-yl)-6-(trifluoromethyl)benzenesulfonamide] |  |  |  |  | 13.7 | 0.7813 | 3.125 | 0.7813 | 5.13 | IC50 (VIM-1; VIM-1 IC50, VIM-1 enzyme, CCF2-FA fluorescence assay): 1.92 nM
14 | N=C(NCCCN)c1ccc(-c2ccc(C(F)(F)F)c(S(N)(=O)=O)c2-c2nn[nH]n2)cc1 [Example 565, N-(3-aminopropyl)-3′-sulfamoyl-2′-(2H-tetrazol-5-yl)-4′-(trifluoromethyl)biphenyl-4-carboximidamide] |  |  |  |  |  |  |  |  |  | IC50 (VIM-1; [15]): 11.3 nM; IC50 (IMP-1; [16]): 200 nM; Serratia marcescens MITC95 [1, 17]: 25 µM; Klebsiella pneumoniae MITC95 [2, 18]: 12.5 µM; Escherichia coli MITC95 [3, 19]: 12.5 µM; IC50 (NDM-1; [20]): 187 nM
15 | CC1(O)CN(c2ccc(-c3cccc(S(N)(=O)=O)c3-c3nnn[nH]3)cn2)C1 [Example 635, 3-[6-(3-hydroxy-3-methyl-azetidin-1-yl)-3-pyridyl]-2-(1H-tetrazol-5-yl)benzenesulfonamide] |  |  |  |  |  |  |  |  |  | IC50 (VIM-1; [15]): 258 nM; IC50 (IMP-1; [16]): 91.5 nM; Serratia marcescens MITC95 [1, 17]: 7.813 µM; Klebsiella pneumoniae MITC95 [2, 18]: 112.5 µM; Escherichia coli MITC95 [3, 19]: 2.148 µM; IC50 (NDM-1; [20]): 4.92 nM
16 | NS(=O)(=O)c1cccc(-c2ccc(NCCO)nc2)c1-c1nn[nH]n1 [Example 426, 3-(6-((2-hydroxyethyl)amino)pyridin-3-yl)-2-(2H-tetrazol-5-yl)benzenesulfonamide] |  |  |  | 260 | 353 | 9.375 | 25 | 0.4063 | 9.28 | 
